# According to patent publication US10028996B2, “Process for the synchronization of ovulation for timed breeding without heat detection” (priority 2003, dated 2018):
# Legend:
# Type in all cases: in vivo, swine
# [1] = tested on: ovariectomized estrogen primed gilt model; assay: Dose response study of deslorelin in SAIB, LH release determined by RIA; conditions: single injection of 50 mcg in SAIB
# Description: A dose response study was performed using deslorelin in SAIB in an ovariectomized estrogen primed gilt model (Barb, et al. (1999) Proceed. Int'l. Symp. Control. Rel. Bioact. Mater., 26).
# [2] = tested on: mature postpartum sows; assay: Deslorelin injected intravulvar at estrus detection in mature postpartum sows, AI breeding; conditions: 50 mcg intravulvar at estrus detection
# Description: Sows were assigned randomly in blocks of two to either control or to be injected intravulvar with 50 mcg of deslorelin in SAIB at the time of estrus detection for sows first detected in estrus in the a.m. and 12 hours later for those first detected in estrus in the p.m. Treated animals were bred AI upon detected estrus and again 24 hours later if still in estrus. Controls received a saline injection on first detected estrus behavior estrus detection and were bred according to the farm's normal procedures.
# [3] = tested on: postpartum sows; assay: Litter size after deslorelin treatment in postpartum sows at three farm sites; conditions: Tables 3 to 5; regardless of estrus detection
# Source text: Postpartum sows were randomly distributed into three different groups comprised of Controls, Treatment 1, and Treatment 2, with the exception of Site 3, which was divided into two groups, Control and Treatment 2. Control sows were detected for estrus following weaning, and bred following the normal standard operating procedures for the farms on which they resided. Treatment 1 sows were detected for estrus following weaning, and received a 50 mcg dose of deslorelin in the morning when standing and were bred by AI 4 hours later and again at 24+/−2 hours later. Treatment 2 sows received a 50 mcg dose of deslorelin in SAIB at 96 or 120 hours post-weaning and were bred with a single insemination 28+/−2 hours later with no regard to estrus detection.
# [4] = tested on: postpartum sows; assay: Single timed deslorelin injection 96 hours post-weaning, single timed insemination without estrus detection; conditions: 50 mcg in SAIB 96 hours post-weaning, no estrus detection
# Description: Approximately 170 postpartum sows were randomly divided into two equal groups comprised of controls and treated. Following weaning, the controls were detected for estrus and bred following the normal standard operating procedures for the farms on which they resided. The treated sows received a 50 mcg dose of deslorelin in SAIB at 96 hours post-weaning and were bred with a single insemination 28+/−2 hours later with no regard to estrus detection. The sows were examined for pregnancy by ultrasound at 21 days and slaughtered around 28 days post breeding. The entire reproductive tract was removed and corpora lutea and embryos were counted.
compound,measurement,setting,value
"CCNC(=O)[C@@H]1CCCN1C(=O)[C@H](CCCN=C(N)N)NC(=O)[C@H](CC(C)C)NC(=O)[C@@H](Cc1c[nH]c2ccccc12)NC(=O)[C@H](Cc1ccc(O)cc1)NC(=O)[C@H](CO)NC(=O)[C@H](Cc1c[nH]c2ccccc12)NC(=O)[C@H](Cc1cnc[nH]1)NC(=O)[C@@H]1CCC(=O)N1 [Deslorelin, deslorelin]",time at which LH returned to base level,[1],≤ 18 h
same,LH peak relative to normal value,[1]; compared to Hansel et al. (1973),about twice normal value
same,"difference in pregnancy rates, Control versus Treated",[2],no significant difference
same,"litter sizes, in words",[3],normal litter sizes
same,Pregnancy Rate,[4],71%
